From paper PMC3090393, “New Noncovalent Inhibitors of Penicillin-Binding Proteins from Penicillin-Resistant Bacteria” (PLoS ONE, 2011)
Converted amounts (≈) assume the structure as drawn.

What was measured:
PBP2a = molecular target: T1, PBP2a (Staphylococcus aureus, UniProt P07944); assay: PBP2a enzymatic inhibition assay (fluorescein-labeled ampicillin, residual penicillin binding activity); type: biochemical, Staphylococcus aureus ATCC 43300; conditions: for remaining activity at 1000 µM: 4 h, residual activity of the enzyme at 1 mM inhibitor, 0.01% Triton X-100, mean of three experiments, read-out: PBP2a RA [%]; for IC50: in the presence of 0.01% Triton X-100
T1 construct: made in house
T1 sequence (P07944 whole entry): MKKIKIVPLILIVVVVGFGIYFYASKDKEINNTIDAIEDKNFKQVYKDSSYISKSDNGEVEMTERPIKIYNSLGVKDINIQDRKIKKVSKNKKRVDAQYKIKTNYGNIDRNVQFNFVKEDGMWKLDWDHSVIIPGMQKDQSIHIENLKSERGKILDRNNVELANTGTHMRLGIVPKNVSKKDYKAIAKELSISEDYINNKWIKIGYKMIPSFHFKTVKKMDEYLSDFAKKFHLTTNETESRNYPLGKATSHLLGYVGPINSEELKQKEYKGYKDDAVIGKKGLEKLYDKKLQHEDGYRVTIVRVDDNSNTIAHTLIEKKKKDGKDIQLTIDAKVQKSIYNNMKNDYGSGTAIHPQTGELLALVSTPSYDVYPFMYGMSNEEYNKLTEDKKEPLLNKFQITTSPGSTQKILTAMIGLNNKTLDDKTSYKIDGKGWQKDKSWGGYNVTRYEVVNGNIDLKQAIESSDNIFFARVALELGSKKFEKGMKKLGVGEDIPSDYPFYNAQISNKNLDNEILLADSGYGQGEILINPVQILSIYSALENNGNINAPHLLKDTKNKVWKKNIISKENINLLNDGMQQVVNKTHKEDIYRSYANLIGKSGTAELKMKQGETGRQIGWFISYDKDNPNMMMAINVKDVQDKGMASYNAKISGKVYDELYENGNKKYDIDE
Description: (§1) PBP2a from Staphylococcus aureus ATCC 43300 and PBP5fm from Enterococcus faecium D63r were overproduced and purified as described previously, [18].
(§2) Each of the purified PBPs (2.5 µM) were first incubated with 1 mM potential inhibitor in 100 mM phosphate buffer, 0.01% Triton X-100[19], pH 7, for 4 h at 30°C. Then, 25 µM fluorescein-labeled ampicillin[20] was added to detect the residual penicillin binding activity (RA). The samples were further incubated for 30 min at 37°C in a total volume of 20 µL. Denaturation buffer was added (0.1 M Tris/HCl, pH 6.8, containing 25% glycerol, 2% SDS, 20% β-mercaptoethanol and 0.02% bromophenol blue) and the samples were heated to 100°C for 1 min. The samples were then loaded onto a 10% SDS-acrilamide gel (10×7 cm) and electrophoresis was performed for 45 min at 180 V (12 mA). Detection and quantification of the RAs were with Molecular Image FX equipment and Quantity One software (BioRad, Hercules, CA, USA). Three independent experiments were carried out for each inhibitor.

PBP2x 5204 = PBP2x 5204 (Streptococcus pneumoniae, UniProt P59676); assay: PBP2x 5204 enzymatic inhibition assay (S2d hydrolysis, DTNB); type: biochemical, Streptococcus pneumoniae strain 5204; conditions: for PBP2x5204 RA [%]: 240 min
PBP2x 5204, sequence (P59676 49-750): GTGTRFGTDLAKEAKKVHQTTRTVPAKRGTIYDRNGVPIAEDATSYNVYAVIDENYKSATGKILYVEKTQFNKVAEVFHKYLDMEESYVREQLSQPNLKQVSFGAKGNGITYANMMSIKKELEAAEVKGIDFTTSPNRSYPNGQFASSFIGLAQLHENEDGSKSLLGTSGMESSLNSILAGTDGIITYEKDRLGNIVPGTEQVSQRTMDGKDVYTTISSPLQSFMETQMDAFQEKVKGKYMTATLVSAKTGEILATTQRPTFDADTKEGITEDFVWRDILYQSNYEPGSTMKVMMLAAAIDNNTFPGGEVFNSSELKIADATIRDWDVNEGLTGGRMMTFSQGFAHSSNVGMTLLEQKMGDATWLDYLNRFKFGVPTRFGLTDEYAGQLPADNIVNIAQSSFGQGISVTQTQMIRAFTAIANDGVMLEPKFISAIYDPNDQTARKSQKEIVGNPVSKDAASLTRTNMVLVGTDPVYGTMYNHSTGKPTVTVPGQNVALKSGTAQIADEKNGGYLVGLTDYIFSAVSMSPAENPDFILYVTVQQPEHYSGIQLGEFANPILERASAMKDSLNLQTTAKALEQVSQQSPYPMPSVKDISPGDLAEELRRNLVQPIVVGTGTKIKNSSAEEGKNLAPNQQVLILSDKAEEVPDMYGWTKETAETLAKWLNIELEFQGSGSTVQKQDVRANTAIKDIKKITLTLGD
Description: PBP2x-5204 from Streptococcus pneumonia and N-benzoyl-D-alanyl-thioglycolate S2d[21], [22] were prepared as previously described. All assays with PBP2x 5204 were carried out in 96-well microtiter plates (Brand, Wertheim, Germany). PBP2x 5204 (0.6 µM) was incubated in the presence of the potential inhibitors in 10 mM sodium phosphate buffer (pH 7.0) containing 70 mM D-alanine and 0.01 mg/mL BSA, for 4 h at 25°C. This preincubation was used to also detect slow binding inhibitors. After the preincubation, the RA of PBP2x 5204 was determined. The initial rate of hydrolysis of 1 mM S2d in the presence of 1 mM DTNB was determined by monitoring the increase in absorbance at 412 nm (DTNB: ε[Δ ε] = […]) using a microplate absorbance reader (Power Wave X, Biotek Instruments, Winooski, U.S.A.). The rate of spontaneous hydrolysis of S2d in the presence of the potential inhibitors was also determined in the absence of PBP2x 5204. All of the assays were carried out in triplicate. The determination of the RA of PBP2x 5204 in the absence of inhibitors was carried out six times on each plate. A test compound was considered as an inhibitor if the RA was <80%. In this case, to reveal false positives, the assays were also carried out under the same conditions in the presence of 0.01% Triton X-100. As described in the literature, promiscuous inhibitors (false positives) are slow binding, noncompetitive inhibitors. To avoid detailed kinetic investigations, it is possible to identify such compounds by carrying out the assays in the presence of Triton X-100[14], [19]. Promiscuous inhibitors show no inhibition in the presence of Triton X-100. The IC50 values in the presence of Triton X-100 were determined if the RAs were <50%. (RA: ∼50%, IC50∼c, c: concentration of compound in the assay; RA >50%, IC50 > c). The RA was measured over a range of concentrations, from which the IC50 values were determined by non-linear regression analysis, using Sigma Plot (Systat software) and fitting the data to the equation y = y0+(a×b)/(b+x)[23].

PBP5fm = PBP5fm (Enterococcus faecium, UniProt Q47759); assay: PBP5fm enzymatic inhibition assay (fluorescein-labeled ampicillin, residual penicillin binding activity); type: biochemical, Enterococcus faecium D63r; conditions: for activity at 1000 µM: 4 h, residual activity of the enzyme at 1 mM inhibitor, 0.01% Triton X-100, read-out: PBP5fm RA [%]
PBP5fm, sequence (Q47759 entry or part of it): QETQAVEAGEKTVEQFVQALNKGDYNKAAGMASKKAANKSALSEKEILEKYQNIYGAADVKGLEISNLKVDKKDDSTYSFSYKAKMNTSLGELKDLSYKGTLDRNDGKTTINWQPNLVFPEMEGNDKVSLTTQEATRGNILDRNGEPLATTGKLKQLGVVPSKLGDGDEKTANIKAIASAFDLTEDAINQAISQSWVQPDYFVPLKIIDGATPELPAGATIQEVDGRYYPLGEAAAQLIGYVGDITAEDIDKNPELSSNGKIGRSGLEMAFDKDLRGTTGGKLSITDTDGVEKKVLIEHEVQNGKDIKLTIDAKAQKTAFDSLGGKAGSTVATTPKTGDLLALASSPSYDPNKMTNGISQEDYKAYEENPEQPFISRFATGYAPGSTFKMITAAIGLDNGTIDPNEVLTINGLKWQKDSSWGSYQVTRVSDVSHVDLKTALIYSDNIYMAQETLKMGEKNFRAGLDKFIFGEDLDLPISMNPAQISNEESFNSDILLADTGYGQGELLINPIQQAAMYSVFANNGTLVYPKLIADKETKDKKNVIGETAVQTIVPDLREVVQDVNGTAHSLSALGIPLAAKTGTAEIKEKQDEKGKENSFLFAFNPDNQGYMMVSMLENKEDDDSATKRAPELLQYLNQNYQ
Description: as §1, §2

[1] = test system: Staphylococcus epidermidis ATCC 12228; assay: In-vitro antibacterial activity (MIC, broth microdilution); type: cell-based; conditions: ATCC12228
Description: (§3) Determination of the antibacterial activities was carried out on microtiter plates, in 200 µL (final volume) of Müeller-Hinton Broth (MHB), following EUCAST (European Committee on Antimicrobial Susceptibility testing)/CLSI (Clinical and Laboratory Standard Institute) recommended procedures, [25]. The compounds were solubilized in MHB, just before use. Inocula were prepared for each strain by resuspending isolated colonies from 18 h cultured plates. Equivalents of 0.5 Mac Farland turbidity standards (approximately 1×10^8 CFU mL^−1) were prepared in saline solution ([…]) and then diluted 200-fold in MBH.

[2] = test system: Listeria monocytogenes ATCC 14780; assay: as above; type: cell-based; conditions: ATCC14780
Description: as §3

[3] = test system: Staphylococcus aureus ATCC 43300 (MRSA); assay: as above; type: cell-based
Description: as §3

[4] = test system: Enterococcus faecalis ATCC 29212; assay: as above; type: cell-based; conditions: ATCC29212
Description: as §3

[5] = test system: Bacillus subtilis ATCC 6633; assay: as above; type: cell-based; conditions: ATCC6633
Description: as §3

[6] = test system: Escherichia coli ATCC 8739; assay: as above; type: cell-based; conditions: ATCC8739
Description: as §3

[7] = test system: Streptococcus pneumoniae ATCC 33400; assay: as above; type: cell-based; conditions: ATCC33400
Description: as §3

[8] = test system: Staphylococcus aureus mp 1 (inducible MRSA); assay: as above; type: cell-based
Description: as §3

[9] = test system: Micrococcus luteus ATCC 9341; assay: as above; type: cell-based; conditions: ATCC9341
Description: as §3

[10] = test system: Pseudomonas aeruginosa ATCC 27853; assay: as above; type: cell-based; conditions: ATCC27853
Description: as §3

[11] = test system: Streptococcus pneumoniae D39; assay: as above; type: cell-based
Description: as §3

[12] = test system: Citrobacter freundii ATCC 8090; assay: as above; type: cell-based; conditions: ATCC8090
Description: as §3

[13] = test system: Enterococcus faecalis ATCC 7937; assay: as above; type: cell-based; conditions: ATCC7937
Description: as §3

[14] = test system: Klebsiella pneumoniae ATCC 13883; assay: as above; type: cell-based; conditions: ATCC13883
Description: as §3

[15] = test system: Proteus mirabilis ATCC 29936; assay: as above; type: cell-based; conditions: ATCC29936
Description: as §3

[16] = test system: Streptococcus pneumoniae ATCC 49619; assay: as above; type: cell-based; conditions: ATCC49619
Description: as §3

[17] = test system: Enterococcus faecium ATCC 19434; assay: as above; type: cell-based; conditions: ATCC19434
Description: as §3

[18] = test system: Enterococcus hirae ATCC 8790; assay: as above; type: cell-based; conditions: ATCC8790
Description: as §3

[19] = test system: Staphylococcus aureus ATCC 25923; assay: as above; type: cell-based; conditions: ATCC25923
Description: as §3

[20] = test system: Listeria innocua ATCC 33090; assay: as above; type: cell-based; conditions: ATCC33090
Description: as §3

[21] = test system: panel of five Gram-negative and 15 Gram-positive bacterial strains; assay: In-vitro antibacterial activity (MIC), whole panel; type: cell-based; conditions: summary over the whole panel; read-out: MICs for all of the bacterial strains under investigation
Description: as §3

[22] = residual activity of the enzyme at 1 mM inhibitor

Row | SMILES | remaining activity at 1000 µM (PBP2a) | IC50 (PBP2a) | PBP2x5204 RA [%] (PBP2x 5204; [22]) | activity at 1000 µM (PBP5fm) | MIC [1] | MIC [2] | MIC [3] | MIC [4] | MIC [5] | MIC [6] | MIC [7] | MIC [8] | MIC [9] | MIC [10] | MIC [11] | MIC [12] | MIC [13] | MIC [14] | MIC [15] | MIC [16] | also measured
1 | CCCOc1cccc(C(=O)Nc2ccc(C)cc2C(=O)O)c1 [compound 10, 5-Methyl-2-(3-propoxybenzamido)benzoic acid] | 17% | 680 µM | 121% | 69% | 128 mg/L (≈ 408 µM) | 32 mg/L (≈ 102 µM) | 256 mg/L (≈ 817 µM) | 256 mg/L (≈ 817 µM) | 256 mg/L (≈ 817 µM) | > 512 mg/L | 2 mg/L (≈ 6.38 µM) | 256 mg/L (≈ 817 µM) | 256 mg/L (≈ 817 µM) | > 512 mg/L | 2 mg/L (≈ 6.38 µM) | > 512 mg/L | 256 mg/L (≈ 817 µM) | > 512 mg/L | > 512 mg/L | 2 mg/L (≈ 6.38 µM) | MIC [17]: 128 mg/L (≈ 408 µM); MIC [18]: 128 mg/L (≈ 408 µM); MIC [19]: 128 mg/L (≈ 408 µM); MIC [20]: 256 mg/L (≈ 817 µM)
2 | CCCOc1ccc(C(=O)Nc2ccccc2C(=O)O)cc1 [compound 8, 2-(4-Propoxybenzamido)benzoic acid] | 60% | – | 103% | 74% | – | – | – | – | – | – | – | – | – | – | – | – | – | – | – | – | –
3 | CCCOc1cccc(C(=O)Nc2ccc(O)cc2C(=O)O)c1 [compound 11, 5-Hydroxy-2-(3-propoxybenzamido)benzoic acid] | 70% | – | 118% | 61% | – | – | – | – | – | – | – | – | – | – | – | – | – | – | – | – | –
4 | CCCOc1cccc(C(=O)Nc2ccccc2C(=O)O)c1 [compound 12, 2-(3-Propoxybenzamido)benzoic acid] | 47% | 910 µM | 97% | 34% | 256 mg/L (≈ 855 µM) | > 512 mg/L | 512 mg/L (≈ 1710 µM) | 256 mg/L (≈ 855 µM) | > 512 mg/L | > 512 mg/L | 256 mg/L (≈ 855 µM) | 512 mg/L (≈ 1710 µM) | 256 mg/L (≈ 855 µM) | > 512 mg/L | 256 mg/L (≈ 855 µM) | > 512 mg/L | > 512 mg/L | > 512 mg/L | > 512 mg/L | 256 mg/L (≈ 855 µM) | MIC [21]: ≥ 256 mg/L; IC50 (PBP5fm; in the presence of 0.01% Triton X-100): > 1000 µM; MIC [17]: > 512 mg/L; MIC [18]: 256 mg/L (≈ 855 µM); MIC [19]: 512 mg/L (≈ 1710 µM); MIC [20]: > 512 mg/L
5 | CCCOc1cccc(C(=O)Nc2ccc(Br)cc2C(=O)O)c1 [compound 9, 5-Bromo-2-(3-propoxybenzamido)benzoic acid] | 0% | 230 µM | – | 72% | 8 mg/L (≈ 21.2 µM) | 16 mg/L (≈ 42.3 µM) | 32 mg/L (≈ 84.6 µM) | 64 mg/L (≈ 169 µM) | 32 mg/L (≈ 84.6 µM) | > 512 mg/L | 1 mg/L (≈ 2.64 µM) | 32 mg/L (≈ 84.6 µM) | 16 mg/L (≈ 42.3 µM) | > 512 mg/L | 1 mg/L (≈ 2.64 µM) | > 512 mg/L | 64 mg/L (≈ 169 µM) | > 512 mg/L | > 512 mg/L | 1 mg/L (≈ 2.64 µM) | IC50 (PBP2x 5204; read-out: PBP2x5204 IC50, in the presence of 0.01% Triton X-100): 155 µM; PBP2x5204 RA [%] (PBP2x 5204; residual activity of the enzyme at 500 µM inhibitor): 8%; MIC [17]: 16 mg/L (≈ 42.3 µM); MIC [18]: 16 mg/L (≈ 42.3 µM); MIC [19]: 32 mg/L (≈ 84.6 µM); MIC [20]: 16 mg/L (≈ 42.3 µM)
